From US20040009168A1, “Multidose antibody formulation” (priority 2002, published 2004)

Key:
[1] = test system: Candida albicans, and Aspergillus niger; assay: Preservative screening test (modified USP/EP preservative efficacy test), fungi; assay type: cell-based; conditions: for Fungi × 10^5 (cfu/mL): 1 week at 25 ° C., total fungal count 2.84 × 10^5 cfu/mL
Description: (§1) The efficacy of the preservative against various microorganisms was measured using a modified USP/EP preservative efficacy test. These tests were conducted at Microconsult Inc. (Dallas, Tex.). In the procedure, formulations were tested against the following microorganisms: Escherichia coli, Staphylococcus aureus, Pseudomonas aeruginosa, Candida albicans, and Aspergillus niger. The three bacterial strains were inoculated together at a total concentration of ˜10^5 cfu/mL, and the two fungi were inoculated together at a total concentration of ˜10^5 cfu/mL. Samples were incubated for 7 days at room temperature (25° C.), and the total bacterial and fungal counts were measured using a colony counter. The log reduction (LR) values for the bacterial and fungal counts were calculated as log (initial count/final count).
(§2) In the unmodified USP/EP preservative efficacy tests, each microorganism is tested separately at a concentration of ˜10^5 cfu/mL. […] The preservative efficacy test was modified in this study to reduce the total sample requirement and cost per analysis. Although the bacterial and fungal strains were not tested individually at specified concentrations, by comparing the overall bacterial and fungal log reduction values with the regulatory requirements, an assessment is made of the efficacy of the preservative against these microorganisms.
(§3) The formulations were prepared by adding the preservatives at the desired concentrations as per the I-optimal design table (Table II), generated using the software Strategy (Experiment Strategies Foundation & Process Builder, Inc.). All samples were incubated at 37° C. for 9 weeks. Because protein aggregation was known to be the primary degradation pathway, protein stability was examined by SEC and right-angle light scattering to monitor the formation of soluble and insoluble aggregates, respectively, and by UV spectroscopy to monitor changes in the protein concentration. The biological activity of the samples was assessed after 1 month at 37° C. Furthermore, to assess the antimicrobial efficacy of the formulations, samples were examined by the preservative screening test at the initial time point. Samples were incubated at room temperature, and the aerobic plate counts were measured based on the minimum requirements of the USP and BP/EP preservative efficacy tests at 24 hours, 7 days, and 14 days.

[2] = test system: Escherichia coli, Staphylococcus aureus, Pseudomonas aeruginosa; assay: Preservative screening test (modified USP/EP preservative efficacy test), bacteria; assay type: cell-based; conditions: for maximal log reduction against bacteria (model simulation): individual preservative; for b-coefficient, Bacterial LR: ± 95% confidence limits; for Bacterial × 10^4 (cfu/mL): 1 week at 25 ° C., total bacterial count 8.78 × 10^4 cfu/mL; for antimicrobial efficacy against bacteria (regression analysis, in words): I-optimal design, 14 days at room temperature
Description: as §1, §2, §3

[3] = test system: formulated humanized monoclonal antibody; assay: Visual analysis of the antibody formulation with preservative; assay type: physicochemical; conditions: for Visual analysis: after 2 days at 50° C.
Description: (§4) The compatibility of six parenteral preservatives (benzyl alcohol, chlorobutanol, methyl paraben, propyl paraben, phenol, and m-cresol) with the formulated humanized monoclonal antibody was tested. The preservatives were added to the formulated antibody based on their commonly used concentration ranges in marketed multidose products (3). Protein aggregation was suspected to be the primary degradation pathway. Preliminary evaluation of the preservatives was done initially by DSC and after 2 days of incubation at 50° C. by visual inspection for appearance and by SEC for soluble aggregates.

[4] = test system: formulated humanized monoclonal antibody; assay: Size-exclusion chromatography (SEC), monomer content; assay type: physicochemical; conditions: for Effect of the preservative on antibody stability (in words): preliminary screening, 2 days at 50° C.; for Percent monomer (by SEC): after 2 days at 50° C.; for Monomer (%): 1 week at 45 ° C.
Description: as §4
(§5) Because of the results seen in the preliminary evaluation, additional analyses were done using lower concentrations of the preservatives.
The monomer content, soluble aggregates, and clips due to hydrolysis were monitored by size-exclusion chromatography. The analytical system employed consisted of an HPLC pump (Perkin Elmer, Series 410) and an autosampler (Perkin Elmer, ISS 2000) connected to a diode array detector (Perkin Elmer, 235C). Two size-exclusion chromatography columns (Tosohaas TSK-Gel, G3000SWXL,), connected in tandem, were used for sample separation. The composition of the mobile phase was 200 mM KPO4, 150 mM NaCl, pH 6.9. Samples were diluted to 1 mg/mL and a sample volume of 40 μL was injected for analysis. The flow rate was 1.0 mL/min, and detection was at 220 and 280 nm.

[5] = test system: antigen expressed on human T cells; assay: Potency testing by FACS binding assay (flow cytometry); conditions: 1 week at 45 ° C.
Description: as §5
The biological activity (potency) of the protein was measured by flow cytometry, based on the binding of the antibody antigen expressed on human T cells.

[6] = test system: formulated humanized monoclonal antibody; assay: Differential scanning calorimetry (DSC), denaturation temperature; assay type: physicochemical; conditions: for Effect on the denaturation temperature (in words): addition of the preservative, relative to control; for Tm (by DSC): initial time point, t0
Description: as §4
A decrease in the denaturation temperature reflects a destabilizing effect of the preservative on formulation stability. The denaturation temperature (Tm) of the sample was measured using the Pyris 1 differential scanning calorimeter (Perkin Elmer). A sample volume of 50 μL was taken from a 10 mg/mL protein sample and sealed in a stainless steel pan. The sample was held at 32° C. for 2 minutes, and heated to 100° C. at the rate of 10° C./min.

[7] = main effect of the preservative (bi)
[8] = quadratic term of one preservative (bii)
[9] = single preservative, 0.2% chlorobutanol

SMILES	b-coefficient, Fungal LR [1, 7]	Fungi × 10^5 (cfu/mL) ([1]; preservative 0.05%)	Fungi × 10^5 (cfu/mL) ([1]; preservative 0.1%)	b-coefficient, Fungal LR [1, 8]	maximal log reduction against bacteria (model simulation) [2]	b-coefficient, Bacterial LR [2, 7]	b-coefficient, Bacterial LR [2, 8]	Visual analysis ([3]; preservative 0.1%)	Effect of the preservative on antibody stability (in words) [4]	Percent monomer (by SEC) ([4]; preservative 0.1%) [%]	Fungi × 10^5 (cfu/mL) ([1]; preservative 0.01%)	Potency (%) ([5]; preservative 0.01%)	Effect on the denaturation temperature (in words) [6]	Monomer (%) ([4]; preservative 0.01%)	antimicrobial efficacy against bacteria (regression analysis, in words) [2]	Bacterial × 10^4 (cfu/mL) ([2]; preservative 0.01%)	other results
CC(C)(O)C(Cl)(Cl)Cl [Chlorobutanol, chlorobutanol]	0.07	18 × 10^5 cfu/mL	14 × 10^5 cfu/mL	−0.64	2.0	0.27 ± 0.05	0.17 ± 0.10	–	–	–	–	–	–	–	–	–	Fungi × 10^5 (cfu/mL) ([1]; preservative 0.2%): 0 × 10^5 cfu/mL; log reduction value predicted by simulation, fungi [1, 9]: 1.2; Bacterial × 10^4 (cfu/mL) ([2]; preservative 0.2%): 46 × 10^4 cfu/mL; log reduction value predicted by simulation, bacteria [2, 9]: 2.0
Oc1ccccc1 [Phenol, phenol]	–	–	–	–	–	–	–	Slightly cloudy	not compatible with the protein	62.7	–	–	–	–	–	–	Visual analysis ([3]; preservative 0.5%): Cloudy; Effect of the preservative on antibody stability (in words) ([4]; listed as phenol): caused the formation of both soluble and insoluble aggregates; Percent monomer (by SEC) ([4]; preservative 0.5%): 20.0%
Cc1cccc(O)c1 [m-cresol]	–	–	–	–	–	–	–	Precipitated	not compatible with the protein	–	–	–	–	–	–	–	Visual appearance of the formulations (in words) ([3]; all tested concentrations, 2 days at 50° C.): precipitated the protein; Visual analysis ([3]; preservative 0.3%): Precipitated
COC(=O)c1ccc(O)cc1 [Methyl paraben, methyl paraben]	0.46	2 × 10^5 cfu/mL	0 × 10^5 cfu/mL	0.00	2.3	0.60 ± 0.05	0.12 ± 0.10	Clear	stable	91.3	26 × 10^5 cfu/mL	73	did not affect the denaturation temperature	98.31	statistically significant antimicrobial efficacy	TNTC	Potency (%) ([5]; preservative 0.05%): 75%; Potency (%) ([5]; preservative 0.1%): 75%; Visual analysis ([3]; preservative 0.05%): Clear; Tm (by DSC) ([6]; preservative 0.05%): 80.4 °C; Monomer (%) ([4]; preservative 0.05%): 97.43%; Monomer (%) ([4]; preservative 0.1%): 97.18%; Percent monomer (by SEC) ([4]; preservative 0.1%, listed as methyl paraben): ~91%; Bacterial × 10^4 (cfu/mL) ([2]; preservative 0.05%): TNTC; Bacterial × 10^4 (cfu/mL) ([2]; preservative 0.1%): 56 × 10^4 cfu/mL
CCCOC(=O)c1ccc(O)cc1 [Propyl paraben, propyl paraben]	0.29	–	–	0.40	–	−0.14 ± 0.05	0.26 ± 0.10	–	stable	–	0 × 10^5 cfu/mL	68	did not affect the denaturation temperature	97.34	not effective	TNTC	Fungi × 10^5 (cfu/mL) ([1]; preservative 0.0075%): 2 × 10^5 cfu/mL; Potency (%) ([5]; preservative 0.0075%): 74%; Visual analysis ([3]; preservative 0.02%): Clear; Tm (by DSC) ([6]; preservative 0.02%): 80.6 °C; Monomer (%) ([4]; preservative 0.0075%): 97.89%; Percent monomer (by SEC) ([4]; preservative 0.02%): 85.3%; Percent monomer (by SEC) ([4]; preservative 0.02%, listed as propyl paraben): 85%; Bacterial × 10^4 (cfu/mL) ([2]; preservative 0.0075%): TNTC
